# Assay results taken from patent publication US20230247992A1, “ARTHROPOD CONTROL COMPOSITION” (Firmenich SA, priority 2020, published 2023).
# Assays:
# [1] = system: Aedes aegypti; experiment: in vitro Warm Body assay, substance applied on glass Petri dish on top of the warm body (deterrence and repellence); type: in vivo
# Description: (§1) The controlling effect, repellence & spatial repellence, according to the present invention is determined by testing the Warm Body assay against the yellow fever mosquito, Aedes aegypti Rockefeller strain. […] Observations of controlling efficacy were made on host-seeking females of uniform age, 5 to 10 days old selected as mentioned in the publication mentioned hereinabove. Tested hungry females had access to 10% sugar solution but were not blood-fed. Further information is provided in the accompanying examples.
# (§2) The published protocol has been adapted in not manually counting the landing mosquitoes but automatically using an automatic counting software, the switch from Anopheles gambiae to A. aegypti led to a decrease of mosquitoes’ number placed in the tested cage due to the size difference (i.e. 30 mosquitoes instead of 50) and to an increase of lighting as A. aegypti is a diurnal mosquitoes (i.e. 150 lux instead of 4 lux). Further information is provided in the accompanying examples.,
# (§3) The controlling effect of the compositions according to the present invention was assessed using an adapted Warm Body assay as defined in Kröber T, Kessler S, Frei J, Bourquin M, Guerin PM. 2010. An in vitro assay for testing mosquito controlling compounds employing a warm body and carbon dioxide as a behavioral activator. J Am Mosq Control Assoc. 26:381-386. In this in-vitro assay the number of mosquito landing on a warm body, simulating an attractive host treated with the tested stimuli, was measured in order to assess the repellence effect.
# as §2, with “to Aedes” for “to A.”, “lux).” for “lux). Further information is provided in the accompanying examples.,”
# (§4) In addition, since the inventors were interested by assessing spatial repellence added or not to a deterrent effect, the substance was applied using two different technics. Whether, as in Kröber et al. (2010), both deterrent and repellent effect were investigated (i.e. similar effect than most body care applications such as lotion) and the substances was applied on a sandblasted glass Petri dish placed on top of the warm body. Whether only the spatial repellence was investigated (i.e. similar effect than most home care applications such as liquid electric dispenser) and the substance was introduced in the cage space thanks to a forced evaporation system as described in Chappuis C J-F, Niclass Y, Vuilleumier C, Starkenmann C. 2015. Quantitative Headspace Analysis of Selected Odorants from Latrines in Africa and India. Environ. Sci. Technol. 49:6134-6140.
# (§5) As stated in Kröber et al. (2010), selected 10-12 days old hungry females, that had ad libitum access to 10% sugar solution but were not blood-fed, were selected for the assay.
# On the sandblasted glass Petri dish covering the warm body (28.3 cm^2), 100 µL of the substances diluted at different concentrations in ethanol was applied. The number of mosquito landing on the warm body was counted for each stimuli, N,N-diethyl-3-methylbenzamide (DEET) and ethyl 3-[acetyl(butyl)amino]propanoate (IR3535) being used as benchmarks and pure ethanol as control.
# [2] = system: Aedes aegypti; experiment: in vitro Warm Body assay, substance introduced in the cage air by forced evaporation (spatial repellence); type: in vivo
# Description: as §1, §2, §3
# as §2, with “to Aedes” for “to A.”, “lux).” for “lux). Further information is provided in the accompanying examples.,”
# as §4, §5
# The forced evaporation system allows to fill the volume of the cage with stimuli tested, (2-methyl-4-oxo-3-prop-2-ynylcyclopent-2-en-1-yl) 2,2-dimethyl-3-(2-methylprop-1-enyl)cyclopropane-1-carboxylate (prallethrin) and N,N-diethyl-3-methylbenzamide (DEET) being used as benchmarks. In order to limit potential dead volumes in the cage, five flushes of the cage were made before starting the 2 minutes test during which the number of mosquito landings was counted.
# [3] = 0.04% in ethanol, ethanol control 67.0±8.8 landings
# [4] = 1% in ethanol, ethanol control 67.0±8.8 landings
# [5] = […] in ethanol, ethanol control 67.0±8.8 landings
# [6] = 0.0017 µg/L air, without substance 54.1±4.9
# [7] = 0.017 µg/L air, without substance 54.1±4.9
# [8] = 0.17 µg/L air, without substance 54.1±4.9
# [9] = 1.7 µg/L air, without substance 54.1±4.9
# [10] = 17 µg/L air, without substance 54.1±4.9
# [11] = 0.04% in ethanol, ethanol control 67.1±9.1 landings
# [12] = 1% in ethanol, ethanol control 67.1±9.1 landings
# [13] = […] in ethanol, ethanol control 67.1±9.1 landings
# [14] = 0.0017 µg/L air, without substance 56.0±3.6
# [15] = 0.017 µg/L air, without substance 56.0±3.6
# [16] = 0.17 µg/L air, without substance 56.0±3.6
# [17] = 1.7 µg/L air, without substance 56.0±3.6
# [18] = 17 µg/L air, without substance 56.0±3.6
# [19] = 0.0017 µg/L air, without substance 54.7±3.2
# [20] = 0.017 µg/L air, without substance 54.7±3.2
# [21] = 0.17 µg/L air, without substance 54.7±3.2
# [22] = 1.7 µg/L air, without substance 54.7±3.2
# [23] = 17 µg/L air, without substance 54.7±3.2
Compound,"number of mosquitoes landing within 2 minutes on the warm body [1, 3]","number of mosquitoes landing within 2 minutes on the warm body [1, 4]","number of mosquitoes landing within 2 minutes on the warm body [1, 5]","number of mosquitoes landing within 2 minutes on the warm body, air in the cage saturated with stimulus [2, 6]","number of mosquitoes landing within 2 minutes on the warm body, air in the cage saturated with stimulus [2, 7]","number of mosquitoes landing within 2 minutes on the warm body, air in the cage saturated with stimulus [2, 8]","number of mosquitoes landing within 2 minutes on the warm body, air in the cage saturated with stimulus [2, 9]","number of mosquitoes landing within 2 minutes on the warm body, air in the cage saturated with stimulus [2, 10]","number of mosquitoes landing within 2 minutes on the warm body [1, 11]","number of mosquitoes landing within 2 minutes on the warm body [1, 12]","number of mosquitoes landing within 2 minutes on the warm body [1, 13]","number of mosquitoes landing within 2 minutes on the warm body, air in the cage saturated with stimulus [2, 14]","number of mosquitoes landing within 2 minutes on the warm body, air in the cage saturated with stimulus [2, 15]","number of mosquitoes landing within 2 minutes on the warm body, air in the cage saturated with stimulus [2, 16]","number of mosquitoes landing within 2 minutes on the warm body, air in the cage saturated with stimulus [2, 17]","number of mosquitoes landing within 2 minutes on the warm body, air in the cage saturated with stimulus [2, 18]",also measured
OCCc1ccccc1 [2-phenylethanol],46.0,0.0,72.0,12.0,30.0,25.0,51.0,30.0,–,–,–,–,–,–,–,–,landing decrease ([2]; highest dose tested): 41%
CC(C)C(=O)OCCc1ccccc1 [2-phenylethyl 2-methylpropanoate],55.0,2.0,90.0,–,–,–,–,–,–,–,–,–,–,–,–,–,–
CC(=O)OC1CC(C)CCC1C(C)C (stereo not drawn) [5-methyl-2-propan-2-ylcyclohexyl] acetate],–,–,–,–,–,–,–,–,16.0,10.0,22.0,31.5,24.0,17.5,9.0,25.0,–
CCCCCCC1CCCC(=O)O1 (stereo not drawn) [6-hexyloxan-2-one],–,–,–,–,–,–,–,–,13.0,5.0,74.0,31.0,28.0,4.0,–,5.0,landings in 2 minutes ([2]; dose of 0.17 µg/L of air): less than five
"CC1=CC[C@@H]2[C@H](C1)C2(C)C [(1S,6R)-3,7,7-trimethylbicyclo[4.1.0]hept-3-ene]",55.0,8.0,59.0,–,–,–,–,–,–,–,–,–,–,–,–,–,–
COc1ccc(COC(C)=O)cc1 [(4-methoxyphenyl)methyl acetate],27.0,9.0,59.0,18.0,26.5,34.5,28.0,–,–,–,–,–,–,–,–,–,–
COC(C)(C)[C@H]1CC=C(C)CC1 [(4R)-4-(2-methoxypropan-2-yl)-1-methylcyclohexene],18.0,3.0,52.0,–,–,–,–,–,–,–,–,–,–,–,–,–,landings per minute ([1]; concentration of 0.04%): ~ 10 landings per minute
"CCN(CC)C(=O)c1cccc(C)c1 [N,N-diethyl-3-methylbenzamide, reference compound]",5.1,2.6,44.9,35.0,28.0,24.0,1.5,3.0,5.1,2.6,44.9,35.0,28.0,24.0,1.5,3.0,"number of mosquitoes landing within 2 minutes on the warm body ([1]; 0.04% in ethanol, ethanol control 59.3±6.9 landings): 5.1; number of mosquitoes landing within 2 minutes on the warm body ([1]; 1% in ethanol, ethanol control 59.3±6.9 landings): 2.6; number of mosquitoes landing within 2 minutes on the warm body ([1]; […] in ethanol, ethanol control 59.3±6.9 landings): 44.9; number of mosquitoes landing within 2 minutes on the warm body, air in the cage saturated with stimulus [2, 19]: 35.0; number of mosquitoes landing within 2 minutes on the warm body, air in the cage saturated with stimulus [2, 20]: 28.0; number of mosquitoes landing within 2 minutes on the warm body, air in the cage saturated with stimulus [2, 21]: 24.0; number of mosquitoes landing within 2 minutes on the warm body, air in the cage saturated with stimulus [2, 22]: 1.5; number of mosquitoes landing within 2 minutes on the warm body, air in the cage saturated with stimulus [2, 23]: 3.0"
CCC=CCC1C(=O)CCC1CC(=O)OC (stereo not drawn) [methyl 2-(3-oxo-2-pent-2-enylcyclopentyl)acetate],2.0,1.0,54.0,–,10.0,4.0,15.0,–,–,–,–,–,–,–,–,–,–
"C#CCC1=C(C)C(OC(=O)C2C(C=C(C)C)C2(C)C)CC1=O (stereo not drawn) [prallethrin, (2-methyl-4-oxo-3-prop-2-ynylcyclopent-2-en-1-yl) 2,2-dimethyl-3-(2-methylprop-1-enyl)cyclopropane-1-carboxylate, reference compound]",–,–,–,77.0,66.0,15.5,3.0,1.0,–,–,–,77.0,66.0,15.5,3.0,1.0,"number of mosquitoes landing within 2 minutes on the warm body, air in the cage saturated with stimulus [2, 19]: 77.0; number of mosquitoes landing within 2 minutes on the warm body, air in the cage saturated with stimulus [2, 20]: 66.0; number of mosquitoes landing within 2 minutes on the warm body, air in the cage saturated with stimulus [2, 21]: 15.5; number of mosquitoes landing within 2 minutes on the warm body, air in the cage saturated with stimulus [2, 22]: 3.0; number of mosquitoes landing within 2 minutes on the warm body, air in the cage saturated with stimulus [2, 23]: 1.0"
